In US11117892B2, “Pyrrolo-pyridine derivative compound, method for preparing same, and pharmaceutical composition containing same as active ingredient for prevention or treatment of protein kinase-related diseases” (DAEGU-GYEONGBUK MEDICAL INNOVATION FOUNDATION, priority 2017, dated 2021):

What was measured:
Experiment in all cases: scanMAX Kinase assay panel
Assay type in all cases: binding
PFCDPK1(P. falciparum) = PFCDPK1(P. falciparum) (Plasmodium falciparum (isolate 3D7), UniProt P62344); conditions: read-out: % control
Experimental: (§1) Particularly, the compounds of Examples 18 and 57 were selected among all of those compounds of the present invention. DiscoverX Co. was asked to measure the enzyme (kinase) selectivity, and the experiment was performed using scanMAX™ Kinase assay panel.
(§2) At this time, the concentration of the drug treated to each enzyme was 1 uM in DMSO and the control percentage (% control) was determined by the following Equation 1. (Example Compound−Positive Control)/(Negative Control−Positive Control)×100 [Equation 1]
(§3) Herein, the positive control indicates the compound showing the % control of 0%, and the negative control indicates DMSO showing the % control of 100%. The enzyme selectivity in the present invention is defined as follows: When the % control for each enzyme is less than 35% (<35%), it is judged that the compound has the activity to the corresponding enzyme.

PRP4 = PRP4 (Homo sapiens (Human), UniProt Q13523); conditions: read-out: % control
Sequence of PRP4 (Q13523 whole entry, looked up): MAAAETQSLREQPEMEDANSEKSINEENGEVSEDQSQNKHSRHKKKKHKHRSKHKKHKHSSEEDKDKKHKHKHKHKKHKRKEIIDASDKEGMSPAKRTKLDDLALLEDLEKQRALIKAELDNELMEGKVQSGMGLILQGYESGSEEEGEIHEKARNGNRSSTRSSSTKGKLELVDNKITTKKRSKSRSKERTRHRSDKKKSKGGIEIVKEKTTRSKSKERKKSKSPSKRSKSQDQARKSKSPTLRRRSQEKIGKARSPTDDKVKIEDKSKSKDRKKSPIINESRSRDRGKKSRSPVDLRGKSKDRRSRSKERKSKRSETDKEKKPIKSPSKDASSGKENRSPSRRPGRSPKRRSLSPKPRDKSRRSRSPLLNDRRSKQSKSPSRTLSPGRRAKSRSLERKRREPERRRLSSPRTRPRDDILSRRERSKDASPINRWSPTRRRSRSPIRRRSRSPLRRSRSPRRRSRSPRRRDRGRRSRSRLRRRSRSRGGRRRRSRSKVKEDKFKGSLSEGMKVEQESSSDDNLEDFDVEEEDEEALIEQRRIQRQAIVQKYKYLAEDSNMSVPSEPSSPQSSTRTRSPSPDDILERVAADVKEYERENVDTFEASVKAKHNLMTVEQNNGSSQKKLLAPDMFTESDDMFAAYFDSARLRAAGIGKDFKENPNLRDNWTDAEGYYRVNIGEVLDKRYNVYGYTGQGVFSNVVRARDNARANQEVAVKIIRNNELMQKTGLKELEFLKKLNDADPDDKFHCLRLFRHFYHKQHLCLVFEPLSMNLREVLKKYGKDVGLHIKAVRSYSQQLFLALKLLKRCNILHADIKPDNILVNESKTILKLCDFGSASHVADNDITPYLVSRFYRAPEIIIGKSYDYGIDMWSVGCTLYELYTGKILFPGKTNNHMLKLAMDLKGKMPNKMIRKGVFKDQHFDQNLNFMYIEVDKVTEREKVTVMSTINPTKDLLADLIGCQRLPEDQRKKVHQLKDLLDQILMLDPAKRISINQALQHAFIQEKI
Experimental: as §1, §2, §3

PKNB(M. tuberculosis) = PKNB(M. tuberculosis) (Mycobacterium tuberculosis (strain ATCC 25618 / H37Rv), UniProt P9WI81); conditions: read-out: % control
Experimental: as §1, §2, §3

CDC2L5 = CDC2L5 (Homo sapiens (Human), UniProt Q14004); conditions: read-out: % control
Sequence of CDC2L5 (Q14004 whole entry, looked up): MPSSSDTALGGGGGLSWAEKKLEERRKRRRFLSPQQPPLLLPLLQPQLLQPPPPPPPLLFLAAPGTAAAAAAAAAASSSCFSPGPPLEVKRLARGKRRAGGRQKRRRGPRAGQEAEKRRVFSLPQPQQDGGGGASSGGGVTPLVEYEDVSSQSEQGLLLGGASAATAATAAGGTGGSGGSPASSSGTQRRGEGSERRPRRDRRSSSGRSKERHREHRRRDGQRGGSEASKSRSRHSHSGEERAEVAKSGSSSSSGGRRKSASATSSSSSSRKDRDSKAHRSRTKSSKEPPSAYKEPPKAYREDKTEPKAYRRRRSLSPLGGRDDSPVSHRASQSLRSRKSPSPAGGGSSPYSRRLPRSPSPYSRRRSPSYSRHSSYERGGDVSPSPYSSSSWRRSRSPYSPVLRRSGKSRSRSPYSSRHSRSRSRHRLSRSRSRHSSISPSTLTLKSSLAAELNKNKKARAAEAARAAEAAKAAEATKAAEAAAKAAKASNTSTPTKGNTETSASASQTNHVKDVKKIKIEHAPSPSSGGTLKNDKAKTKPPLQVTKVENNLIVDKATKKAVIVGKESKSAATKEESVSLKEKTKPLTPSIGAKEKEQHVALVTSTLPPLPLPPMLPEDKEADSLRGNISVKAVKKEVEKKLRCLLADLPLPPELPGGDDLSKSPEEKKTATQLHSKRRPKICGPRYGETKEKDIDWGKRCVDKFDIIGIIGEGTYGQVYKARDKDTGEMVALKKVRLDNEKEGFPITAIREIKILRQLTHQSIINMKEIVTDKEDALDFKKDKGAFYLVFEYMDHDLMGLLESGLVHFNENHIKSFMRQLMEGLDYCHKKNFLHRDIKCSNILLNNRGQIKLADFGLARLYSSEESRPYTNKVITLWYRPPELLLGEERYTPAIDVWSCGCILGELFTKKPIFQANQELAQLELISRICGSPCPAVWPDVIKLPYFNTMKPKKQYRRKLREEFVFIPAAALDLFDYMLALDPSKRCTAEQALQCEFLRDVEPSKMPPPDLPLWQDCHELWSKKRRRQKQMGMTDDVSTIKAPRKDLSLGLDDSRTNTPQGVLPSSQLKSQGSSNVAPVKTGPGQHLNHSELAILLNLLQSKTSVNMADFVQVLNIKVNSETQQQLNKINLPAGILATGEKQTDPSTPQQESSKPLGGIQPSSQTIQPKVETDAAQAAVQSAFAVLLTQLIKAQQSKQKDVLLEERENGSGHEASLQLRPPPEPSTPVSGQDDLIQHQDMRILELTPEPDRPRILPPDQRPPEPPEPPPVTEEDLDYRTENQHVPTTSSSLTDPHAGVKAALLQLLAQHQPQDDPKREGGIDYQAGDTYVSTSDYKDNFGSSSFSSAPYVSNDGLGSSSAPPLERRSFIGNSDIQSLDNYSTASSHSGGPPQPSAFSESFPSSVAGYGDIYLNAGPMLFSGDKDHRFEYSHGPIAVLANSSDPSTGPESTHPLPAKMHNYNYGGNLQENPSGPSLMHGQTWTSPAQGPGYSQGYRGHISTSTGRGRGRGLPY
Experimental: as §1, §2, §3

PFPK5(P. falciparum) = PFPK5(P. falciparum) (Plasmodium falciparum (isolate 3D7), UniProt P61075); conditions: read-out: % control
Experimental: as §1, §2, §3

CDK11 = CDK11 (Homo sapiens (Human), UniProt Q9BWU1); conditions: read-out: % control
Outline: (§4)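 Using scanMAX, compound selectivity across kinases is determined. The output is % control, bounded by a DMSO control at 100% and a reference positive compound at 0%.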

FLT3(D835Y) = FLT3(D835Y) (Homo sapiens (Human), UniProt P36888, D835Y); conditions: read-out: % control
Outline: as §4

[1] = molecular target: JAK1(JH1domain-catalytic) (Homo sapiens (Human), UniProt P23458); conditions: read-out: % control
Outline: as §4

PIP5K2C = PIP5K2C (Homo sapiens (Human), UniProt Q8TBX8); conditions: read-out: % control
Sequence of PIP5K2C (Q8TBX8 whole entry): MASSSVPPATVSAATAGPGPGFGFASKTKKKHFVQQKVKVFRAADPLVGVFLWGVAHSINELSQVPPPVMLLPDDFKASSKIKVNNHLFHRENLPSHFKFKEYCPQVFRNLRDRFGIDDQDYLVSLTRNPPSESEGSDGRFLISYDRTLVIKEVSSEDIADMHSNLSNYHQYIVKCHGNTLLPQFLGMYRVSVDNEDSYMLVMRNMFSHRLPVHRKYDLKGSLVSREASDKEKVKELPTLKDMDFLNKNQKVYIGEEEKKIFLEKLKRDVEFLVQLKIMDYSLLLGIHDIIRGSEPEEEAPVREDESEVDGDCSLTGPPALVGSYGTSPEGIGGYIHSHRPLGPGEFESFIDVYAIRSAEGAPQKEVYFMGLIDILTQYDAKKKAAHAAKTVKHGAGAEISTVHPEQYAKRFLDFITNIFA
Outline: as §4

VPS34 = VPS34 (Homo sapiens (Human), UniProt Q8NEB9); conditions: read-out: % control
Outline: as §4

[2] = molecular target: RSK2(Kin.Dom.2-C-terminal) (Homo sapiens (Human), UniProt P51812); conditions: read-out: % control
Sequence of RSK2(Kin.Dom.2-C-terminal) (P51812 422-679): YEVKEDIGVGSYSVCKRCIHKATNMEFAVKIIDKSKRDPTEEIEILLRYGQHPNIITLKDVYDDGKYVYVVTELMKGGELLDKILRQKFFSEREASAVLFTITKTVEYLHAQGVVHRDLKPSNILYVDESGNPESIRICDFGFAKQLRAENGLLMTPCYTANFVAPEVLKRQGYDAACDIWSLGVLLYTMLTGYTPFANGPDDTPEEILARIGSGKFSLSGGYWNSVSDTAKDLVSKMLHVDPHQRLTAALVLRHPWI
Outline: as §4

CAMK2D = CAMK2D (Homo sapiens (Human), UniProt Q13557); conditions: read-out: % control
Outline: as §4

ALK = ALK (Homo sapiens (Human), UniProt Q9UM73); conditions: read-out: % control
Outline: as §4

MRCKB = MRCKB (Homo sapiens (Human), UniProt Q9Y5S2); conditions: read-out: % control
Outline: as §4

CDKL3 = CDKL3 (Homo sapiens (Human), UniProt Q8IVW4); conditions: read-out: % control
Outline: as §4

MAP3K3 = MAP3K3 (Homo sapiens (Human), UniProt Q99759); conditions: read-out: % control
Outline: as §4

STK33 = STK33 (Homo sapiens (Human), UniProt Q9BYT3); conditions: read-out: % control
Sequence of STK33 (Q9BYT3 whole entry): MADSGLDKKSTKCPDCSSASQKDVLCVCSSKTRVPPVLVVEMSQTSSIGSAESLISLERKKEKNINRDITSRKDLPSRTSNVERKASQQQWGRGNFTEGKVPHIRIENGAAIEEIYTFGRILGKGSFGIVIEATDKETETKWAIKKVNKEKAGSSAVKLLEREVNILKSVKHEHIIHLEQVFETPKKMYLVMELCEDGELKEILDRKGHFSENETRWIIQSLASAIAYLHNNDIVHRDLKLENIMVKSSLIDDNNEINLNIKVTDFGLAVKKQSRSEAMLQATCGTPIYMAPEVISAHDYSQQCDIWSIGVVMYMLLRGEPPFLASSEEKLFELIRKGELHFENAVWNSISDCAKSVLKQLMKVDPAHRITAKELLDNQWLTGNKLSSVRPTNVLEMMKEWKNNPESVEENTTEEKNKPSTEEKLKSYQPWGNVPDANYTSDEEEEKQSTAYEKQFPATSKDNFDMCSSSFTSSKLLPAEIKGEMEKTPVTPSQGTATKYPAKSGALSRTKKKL
Outline: as §4

PRKCI = PRKCI (Homo sapiens (Human), UniProt P41743); conditions: read-out: % control
Outline: as §4

TEC = TEC (Homo sapiens (Human), UniProt P42680); conditions: read-out: % control
Sequence of TEC (P42680 whole entry): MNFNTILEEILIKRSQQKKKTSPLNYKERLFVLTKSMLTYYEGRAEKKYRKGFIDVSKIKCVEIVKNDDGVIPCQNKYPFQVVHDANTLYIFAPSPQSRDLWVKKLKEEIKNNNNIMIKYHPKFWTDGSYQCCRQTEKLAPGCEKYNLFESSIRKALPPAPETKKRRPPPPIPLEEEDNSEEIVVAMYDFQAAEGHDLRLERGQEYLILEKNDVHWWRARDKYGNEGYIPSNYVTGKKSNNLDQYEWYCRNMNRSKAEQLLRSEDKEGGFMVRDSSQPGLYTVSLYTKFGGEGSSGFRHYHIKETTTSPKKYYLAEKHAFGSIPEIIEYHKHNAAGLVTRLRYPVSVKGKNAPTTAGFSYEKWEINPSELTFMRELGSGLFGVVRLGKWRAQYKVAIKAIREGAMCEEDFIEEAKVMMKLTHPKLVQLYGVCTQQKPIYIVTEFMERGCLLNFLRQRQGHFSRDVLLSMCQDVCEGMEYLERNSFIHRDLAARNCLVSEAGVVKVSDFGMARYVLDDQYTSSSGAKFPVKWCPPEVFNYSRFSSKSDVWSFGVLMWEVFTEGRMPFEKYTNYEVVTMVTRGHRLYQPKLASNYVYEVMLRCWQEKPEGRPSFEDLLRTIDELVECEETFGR
Outline: as §4

[3] = molecular target: JAK2(JH1domain-catalytic) (Homo sapiens (Human), UniProt O60674); conditions: read-out: % control
Outline: as §4

BRK = BRK (Homo sapiens (Human), UniProt Q13882); conditions: read-out: % control
Sequence of BRK (Q13882 whole entry): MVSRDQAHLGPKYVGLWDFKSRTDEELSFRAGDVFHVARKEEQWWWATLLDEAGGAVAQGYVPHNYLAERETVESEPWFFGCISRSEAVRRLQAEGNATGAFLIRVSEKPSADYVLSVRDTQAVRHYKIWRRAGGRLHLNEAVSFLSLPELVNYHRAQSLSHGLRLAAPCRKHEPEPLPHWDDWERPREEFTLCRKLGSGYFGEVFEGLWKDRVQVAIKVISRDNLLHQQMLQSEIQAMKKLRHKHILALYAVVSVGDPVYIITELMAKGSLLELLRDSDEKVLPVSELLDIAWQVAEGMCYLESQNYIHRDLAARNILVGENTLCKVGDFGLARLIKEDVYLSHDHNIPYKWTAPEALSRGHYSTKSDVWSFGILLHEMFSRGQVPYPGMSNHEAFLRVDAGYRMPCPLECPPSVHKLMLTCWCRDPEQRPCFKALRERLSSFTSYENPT
Outline: as §4

FLT3(ITD, D835V) = conditions: 1 uM
Outline: as §4

DRAK2 = DRAK2 (Homo sapiens (Human), UniProt O94768); conditions: read-out: % control
Outline: as §4

[4] = molecular target: ABL1(E255K)-phosphorylated (Homo sapiens (Human), UniProt P00519, E255K); conditions: read-out: % control
Outline: as §4

ASK2 = ASK2 (Homo sapiens (Human), UniProt O95382); conditions: read-out: % control
Outline: as §4

EPHA5 = EPHA5 (Homo sapiens (Human), UniProt P54756); conditions: read-out: % control
Outline: as §4

PKAC-alpha = PKAC-alpha (Homo sapiens (Human), UniProt P17612); conditions: read-out: % control
Outline: as §4

BIKE = BIKE (Homo sapiens (Human), UniProt Q9NSY1); conditions: read-out: % control
Outline: as §4

FER = FER (Homo sapiens (Human), UniProt P16591); conditions: read-out: % control
Outline: as §4

MTOR = MTOR (Homo sapiens (Human), UniProt P42345); conditions: read-out: % control
Outline: as §4

CAMK1 = CAMK1 (Homo sapiens (Human), UniProt Q14012); conditions: read-out: % control
Outline: as §4

TLK2 = TLK2 (Homo sapiens (Human), UniProt Q86UE8); conditions: read-out: % control
Outline: as §4

## CCNc1cc(Nc2ccc(C(=O)N3CCC(N4CCOCC4)CC3)cc2OC)nc2[nH]cc(C#N)c12 [Example 18, 4-(ethylamino)-6-((2-methoxy-4-(4-morpholinopiperidine-1-carbonyl)phenyl)amino)-1H-pyrrolo[2,3-b]pyridine-3-carbonitrile]
PFCDPK1(P. falciparum)
  remaining binding at 1 µM: 72%
PRP4
  remaining binding at 1 µM: 100%
PKNB(M. tuberculosis)
  remaining binding at 1 µM: 82%
CDC2L5
  remaining binding at 1 µM: 100%
PFPK5(P. falciparum)
  remaining binding at 1 µM: 98%
CDK11
  remaining binding at 1 µM: 98%
FLT3(D835Y)
  remaining binding at 1 µM: 82%
[1]
  remaining binding at 1 µM: 100%
PIP5K2C
  remaining binding at 1 µM: 16%
VPS34
  remaining binding at 1 µM: 96%
[2]
  remaining binding at 1 µM: 100%
CAMK2D
  remaining binding at 1 µM: 82%
ALK
  remaining binding at 1 µM: 2.7%
MRCKB
  remaining binding at 1 µM: 92%
CDKL3
  remaining binding at 1 µM: 100%
MAP3K3
  remaining binding at 1 µM: 70%
STK33
  remaining binding at 1 µM: 17%
PRKCI
  remaining binding at 1 µM: 76%
TEC
  remaining binding at 1 µM: 100%
[3]
  remaining binding at 1 µM: 70%
BRK
  remaining binding at 1 µM: 95%
FLT3(ITD, D835V)
  % control: 100%
DRAK2
  remaining binding at 1 µM: 27%
[4]
  remaining binding at 1 µM: 77%
ASK2
  remaining binding at 1 µM: 82%
EPHA5
  remaining binding at 1 µM: 99%
PKAC-alpha
  remaining binding at 1 µM: 70%
BIKE
  remaining binding at 1 µM: 90%
FER
  remaining binding at 1 µM: 62%
MTOR
  remaining binding at 1 µM: 86%
CAMK1
  remaining binding at 1 µM: 62%
TLK2
  remaining binding at 1 µM: 98%

## CCNc1cc(Nc2ccc(C(=O)N3CCC(N4CCOCC4)CC3)cc2OC)nc2[nH]cc(C(F)(F)F)c12 [Example 57, (4-((4-(ethylamino)-3-(trifluoromethyl)-1H-pyrrolo[2,3-b]pyridin-6-yl)amino)-3-methoxyphenyl) (4-morpholinopiperidin-1-yl)methanone]
PFCDPK1(P. falciparum)
  remaining binding at 1 µM: 98%
PRP4
  remaining binding at 1 µM: 91%
PKNB(M. tuberculosis)
  remaining binding at 1 µM: 100%
CDC2L5
  remaining binding at 1 µM: 92%
PFPK5(P. falciparum)
  remaining binding at 1 µM: 98%
CDK11
  remaining binding at 1 µM: 67%
FLT3(D835Y)
  remaining binding at 1 µM: 88%
[1]
  remaining binding at 1 µM: 97%
PIP5K2C
  remaining binding at 1 µM: 71%
VPS34
  remaining binding at 1 µM: 79%
[2]
  remaining binding at 1 µM: 100%
CAMK2D
  remaining binding at 1 µM: 47%
ALK
  remaining binding at 1 µM: 2.5%
MRCKB
  remaining binding at 1 µM: 100%
CDKL3
  remaining binding at 1 µM: 61%
MAP3K3
  remaining binding at 1 µM: 75%
STK33
  remaining binding at 1 µM: 16%
PRKCI
  remaining binding at 1 µM: 63%
TEC
  remaining binding at 1 µM: 92%
[3]
  remaining binding at 1 µM: 100%
BRK
  remaining binding at 1 µM: 94%
FLT3(ITD, D835V)
  % control: 100%
DRAK2
  remaining binding at 1 µM: 69%
[4]
  remaining binding at 1 µM: 84%
ASK2
  remaining binding at 1 µM: 92%
EPHA5
  remaining binding at 1 µM: 85%
PKAC-alpha
  remaining binding at 1 µM: 100%
BIKE
  remaining binding at 1 µM: 85%
FER
  remaining binding at 1 µM: 67%
MTOR
  remaining binding at 1 µM: 88%
CAMK1
  remaining binding at 1 µM: 78%
TLK2
  remaining binding at 1 µM: 88%
